Patent publication US6737382B1, “Insecticidal aminothiazole derivatives” (Nippon Soda Co. Ltd., priority 2002, dated 2004)

Tests used:
Pseudaletia separata = experiment: whole plant or invertebrate; assay type: in vivo; conditions: Mythimna separata, in Zea mays, foliar, 120 h
Method: Efficacy Against Pseudaletia separata Walker (Ps; Rice Armyworm)
A piece of Maize leaf (ca. 7×1.5 cm) was dipped in the chemical solution at 125 ppm for 30 sec and air-dried. The leaf was placed in a glass petri dish (9 cm diameter) and five second-instar larvae of Pseudaletia separata were introduced into the petri dish. Five days after the treatment, the number of survival larvae was counted and the mortality was calculated by Abbott's formula. Each test was duplicated.

Plutella xylostella = experiment: whole plant or invertebrate; assay type: in vivo; conditions: in Brassica oleracea, 72 h
Description: Efficacy Against Plutella xylostella Linne (Px; Diamondback Moth)
The chemical solution at 125 ppm was sprayed on a Cabbage seedling by a glass nozzle using an air compressor. After airdried, a small leaf (ca. 5 cm diameter) was detached from the treated plant and placed in a glass petri dish (ca. 9 cm diameter). Five second-instar larvae of Plutella xylostella were introduced into the petri dish. Three days after the treatment, the number of survival larvae was counted and the mortality was calculated by Abbott's formula. Each test was duplicated.

Tetranychus urticae = experiment: Efficacy against Tetranychus urticae (two-spotted spider mites), spray on kidney-bean seedling; conditions: in vivo
Method: Efficacy Against Tetranychus urticae (Tu; Two-spotted Spider Mites
Fifteen adult females were inoculated on a potted Kidney-bean seedling. On the next day, the chemical solution at different concentration was sprayed on the Kidney-bean seedling by a glass nozzle using an air compressor. After air-dried the Kidney-bean pot was maintained in a room kept at 25° C. and 65%RH.
On three days after treatment, the numbers of dead and alive mites were counted and mortality was calculated by Abbott's formula.
Each test was duplicated. [formula]

| melting point [°C] | SMILES | mortality at 125 ppm (Pseudaletia separata) [%] | also measured |
| --- | --- | --- | --- |
| 167 to 168 | N#CSc1sc(NC(=O)c2cccc(C(F)(F)F)c2)nc1C(F)(F)F [Compound 131, N-(5-thiocyanato-4-trifluoromethylthiazol-2-yl)-3-trifluoromethylbenzamide] | – | – |
| – | O=C(Nc1nc(C(F)(F)F)c(I)s1)c1ccc(C(F)(F)F)cc1 [Compound 45, N-(5-Iodo-4-trifluoromethylthiazol-2-yl)-4-trifluoromethyl-benzamide] | 100 | mortality at 125 ppm (Plutella xylostella): 100% |
| 183 to 184 | O=C(Nc1nc(C(F)(F)F)c(Cl)s1)c1ccc(Cl)c([N+](=O)[O-])c1 [Compound 80, N-(5-Chloro-4-trifluoromethylthiazol-2-yl)-4-chloro-3-nitrobenzamide] | – | – |
| – | O=C(Nc1nc(C(F)(F)F)c(I)s1)c1c(Cl)cccc1Cl [Compound 44, N-(5-Iodo-4-trifluoromethylthiazol-2-yl)-2,6-dichloro-benzamide] | 100 | – |
| – | O=C(Nc1nc(C(F)(F)F)c(-c2ccc(F)cc2)s1)c1ccc(C(F)(F)F)cc1 [Compound 81, N-(5-(4-Fluorophenyl)-4-trifluoromethylthiazol-2-yl)-4-trifluoromethylbenzamide] | 100 | – |
| 172 to 173 | O=C(Nc1nc(C(F)(F)F)c(I)s1)c1cc(C(F)(F)F)cc(C(F)(F)F)c1 [Compound 102, N-(5-Iodo-4-trifluoromethylthiazol-2-yl)-3,5-bis-trifluoromethylbenzamide] | – | – |
| – | O=C(Nc1nc(C(F)(F)F)c(Br)s1)c1ccc(Cl)c(Cl)c1 [Compound 19, N-(5-Bromo-4-trifluoromethylthiazol-2-yl)-3,4-dicloro-benzamide] | – | mortality (Tetranychus urticae): 100% |
| 184 to 185 | O=C(Nc1nc(C(F)(F)F)c(Br)s1)c1cccs1 [Compound 34, N-(5-Bromo-4-trifluoromethylthiazol-2-yl)thiophene-2-carboxamide] | – | – |
